Tests used:
C57Bl/6J-apoE null mice = experiment: Intravitreal L-4F: electron microscopy of Bruch's membrane of aged C57Bl/6J-apoE null mice; assay type: in vivo, mouse
Text: In every other RPE cell big lipid vacuoles (asterisks) are found, a sign of stress and beginning degeneration. PR: photo receptors; CC: choriocapillaris: EC: vascular endothelial cell of the choriocapillaris.
The membrane is slightly thickened with multiple translucent lipid vacuoles. A few are marked with asterisks. EC: vascular endothelial cell of choriocapillaris.
An effective clearance of this lipid debris via an ApoA-I mimetic peptide (L-4F) could prevent early AMD-like degeneration.
L-4F was injected directly into the vitreous cavity of right eyes of 10 eight month old C57Bl/6J-apoE null mice. A single dose of 3 μl was injected with a L-4F concentration of 400 μg/ml. All left eyes were untreated throughout the study and thus be served as controls. The animals were then sacrificed 21 days after the injection and the eyes were immediately enucleated and fixed. Eyes then were processed for electron microscopy (EM).

ApoE null mice [1] = experiment: HDL function after D-4F and/or statin in the drinking water; assay type: in vivo, mouse; details: 0.05 mg/ml in the drinking water for 24 hours
[2] = tested on: human aortic endothelial cells; experiment: Prevention of LDL-induced monocyte chemotactic activity, co-incubation; assay type: cell-based; details: co-incubation with control human LDL 200 μg protein/ml, overnight
[3] = tested on: human aortic endothelial cells; experiment: Prevention of LDL-induced monocyte chemotactic activity by pre-treatment of artery wall cells; assay type: cell-based; details: 6 hrs pre-incubation with peptide, wash, then control human LDL 200 μg protein/ml overnight
Description: FIG. 2 illustrates the prevention of LDL-induced monocyte chemotactic activity by pre-treatment of artery wall cells with D-J336 as compared to D-4F. The data are mean±SD of the number of migrated monocytes in nine high power fields in quadruple cultures.
FIG. 2 illustrates a comparison of the effect of D-4F with the effect of D-J336 on the prevention of LDL induced monocyte chemotactic activity in a pre-incubation. Human aortic endothelial cells were pre-incubated with D-J336 or D-4F at 4, 2, and 1µg/ml for DJ336 or 100, 50, 25, and 12.5 μg/ml for D-4F for 6 hrs. The cultures were then washed and were incubated with medium alone (no addition), or with control human LDL (200 μg protein/ml), or with control human LDL+ control human HDL (350 μg HDL protein/ml) as assay controls. The wells that were pre-treated with peptides received the control human LDL at 200 μg protein/ml. Following overnight incubation, the supernatants were assayed for monocyte chemotactic activity.

LDL receptor null mice = experiment: HDL protective capacity in LDL receptor null mice given peptide in drinking water; assay type: in vivo; details: 0.25 or 0.5 mg per ml of drinking water, 24 or 48 hrs, mouse HDL at 100 μg/ml
Description: FIG. 3 illustrates the effect of apo J peptide mimetics on HDL protective capacity in LDL receptor null mice. The values are the mean±SD of the number of migrated monocytes in 9 high power fields from each of quadruple assay wells.
D-4F designated as F, or the apoJ peptide made from D amino acids (D-J336, designated as J) was added to the drinking water of LDL receptor null mice (4 per group) at 0.25 or 0.5 mg per ml of drinking water. After 24- or 48-hrs blood was collected from the mice and their HDL was isolated and tested for its ability to protect against LDL-induced monocyte chemotactic activity. Assay controls included culture wells that received no lipoproteins (no addition), or control human LDL alone (designated as LDL, 200µg cholesterol/ml), or control LDL+ control human HDL (designated as +HDL, 350µg HDL cholesterol). For testing the mouse HDL, the control LDL was added together with mouse HDL (+F HDL or +J HDL) to artery wall cell cultures. The mouse HDL was added at 100 μg cholesterol/ml respectively.

ApoE null mice [4] = experiment: Protection against LDL-induced monocyte chemotactic activity by HDL from apo E null mice given oral peptides; assay type: in vivo, mouse
Text: FIG. 4 illustrates protection against LDL-induced monocyte chemotactic activity by HDL from apo E null mice given oral peptides. The values are the mean±SD of the number of migrated monocytes in 9 high power fields from each of quadruple assay wells. Asterisks indicate significant difference (p<0.05) as compared to No Peptide mHDL.
After 24 hrs blood was collected, plasma fractionated by FPLC and fractions containing LDL (designated as mLDL for murine LDL) and fractions containing HDL (designated as mHDL) were separately pooled and HDL protective capacity against LDL oxidation as determined by LDL-induced monocyte chemotactic activity was determined. For the assay controls the culture wells received no lipoproteins (no additions), mLDL alone (at 200 μg cholesterol/ml), or mLDL+ standard normal human HDL (designated as Cont. h HDL, at 350 μg HDL cholesterol/ml).
For testing the murine HDL, mLDL together with murine HDL (+F mHDL or +J mHDL) were added to artery wall cell cultures. […] The murine HDL was used at 100µg cholesterol/ml.

ApoE null mice [5] = experiment: Ability of LDL from apoE null mice given oral peptides to induce monocyte chemotactic activity (LDL susceptibility to oxidation); assay type: in vivo, mouse; details: added to the drinking water, 24 hrs
Text: FIG. 5 illustrates the effect of oral apo A-1 peptide mimetic and apoJ peptide on LDL susceptibility to oxidation. The values are the mean±SD of the number of migrated monocytes in 9 high power fields from each of quadruple assay wells. Asterisks indicate significant difference (p<0.05) as compared to No Peptide LDL.
FIG. 5 illustrates the effect of oral apo A-1 peptide mimetic and apoJ peptide on LDL susceptibility to oxidation. […] After 24 hrs blood was collected from the mice shown in FIG. 4, plasma fractionated by FPLC and fractions containing LDL (designated as mLDL for murine LDL) were pooled and LDL susceptibility to oxidation as determined by induction of monocyte chemotactic activity was determined. For the assay controls the culture wells received no lipoproteins (no additions), mLDL alone (at 200 μg cholesterol/ml), or mLDL+ standard normal human HDL (designated as Cont. h HDL, 350 μg HDL cholesterol).
Murine LDL, mLDL, from mice that received the D-4F (F mLDL) or those that received the apoJ peptide (J mLDL) were added to artery wall cell cultures.

ApoE null mice [6] = experiment: Protection against PAPC oxidation by HPODE and induction of monocyte chemotactic activity by HDL from apo E null mice given oral peptides; assay type: in vivo, mouse; details: added to the drinking water, 24 hrs; murine HDL 100 μg cholesterol/ml
Description: The values are the mean±SD of the number of migrated monocytes in 9 high power fields from each of quadruple assay wells. Asterisks indicate significant difference (p<0.05) as compared to No Peptide mHDL.
After 24 hrs blood was collected, plasma fractionated by FPLC and fractions containing HDL (designated as mHDL) were pooled and HDL protective capacity against PAPC oxidation as determined by the induction of monocyte chemotactic activity was determined. For the assay controls the culture wells received no lipoproteins (no additions), the phospholipid PAPC at 20µg/ml+HPODE, at 1.0 μg/ml, or PAPC+HPODE plus standard normal human HDL (at 350 μg HDL cholesterol/ml and designated as +Cont. h HDL).
For testing the murine HDL, PAPC+HPODE together with murine HDL (+F mHDL or +J mHDL) were added to artery wall cell cultures. […] The murine HDL was used at 100 μg cholesterol/ml.

PON1 = details: added to the drinking water, 24 hrs
Description: The values are the mean±SD of readings from quadruple plasma aliquots.
After 24 hrs blood was collected and plasma was assayed for PON1 activity.

[7] = Association with pre-beta HDL / HDL and clearance from the circulation after an oral dose; details: mouse, in vivo
human LDL = experiment: Treating human LDL in vitro: removal of seeding molecules
Text: (§1) We discovered that normal HDL inhibits three steps in the formation of mildly oxidized LDL. […] These seeding molecules were required for cocultures of human artery wall cells to be able to oxidize LDL and for the LDL to induce the artery wall cells to produce monocyte chemotactic activity.

mice = experiment: LDL isolated after injection of apo A-I into mice: oxidation by human artery wall cells; assay type: in vivo, mouse
Text: as §1

human volunteers = experiment: LDL isolated after infusion of apo A-I into humans: oxidation by human artery wall cells; assay type: in vivo
Text: as §1

[8] = tested on: mice fed an atherogenic diet; details: 20 μg daily injected; cited from earlier work

With “Ac-D-W-F-K-A-F-Y-D-K-V-A-E-K-F-K-E-A-F-NH2 (Ac-DWFKAFYDKVAEKFKEAF-NH2) [Peptide L-4F]” the “Bruch's membrane structure, electron microscopy of treated eyes” value (C57Bl/6J-apoE null mice; magnification 5,000×) was “regular and uniform Bruch's membrane structure”, the “lipid droplets in RPE cells, electron microscopy of treated eyes” value (C57Bl/6J-apoE null mice; magnification 5,000×) was “none of the RPE cells showed lipid droplets” and the “translucent lipid vacuoles in Bruch's membrane, electron microscopy of a treated eye” value (C57Bl/6J-apoE null mice; magnification 20,000×) was “no translucent lipid vacuoles shown”. For the same compound, the “Bruch's membrane and RPE morphology and lipid content of treated eyes compared to untreated eyes (EM)” value (C57Bl/6J-apoE null mice; single intravitreal 3 μl of 400 μg/ml, 21 days, EM of 2 mice) was “significant improvement in Bruch's membrane and RPE morphology as well as lipid content”.

For `CC(C)c1c(C(=O)Nc2ccccc2)c(-c2ccccc2)c(-c2ccc(F)cc2)n1CC[C@@H](O)C[C@@H](O)CC(=O)O` [atorvastatin, reference compound], the “HDL function, statin alone” value (ApoE null mice [1]) was “did not improve HDL function”.

With Ac-LLEQLNEQFNWVSRLANLTQGE-NH2 [D-J336] the “in vitro concentration that prevents LDL-induced monocyte chemotactic activity by human artery wall cells, relative to the concentration required for the D-4F peptide” value [2] was 10 to 25 times less, the “potency in preventing LDL oxidation by artery wall cells in vitro, compared with D-4F” value [3] was 10-25 times more potent and the “activity of mouse HDL in preventing control LDL from inducing artery wall cells to produce monocyte chemotactic activity” value (LDL receptor null mice) was “as active as 350 μg/ml of control human HDL”. The “activity of murine HDL against LDL-induced monocyte chemotactic activity” value (ApoE null mice [4]; ApoE null mice, peptide in drinking water 24 hrs, murine HDL at 100 μg/ml) was “as active as 350µg/ml of normal human HDL”, the “potency in enhancing HDL protective capacity in apo E null mice” value (ApoE null mice [4]; added to the drinking water, 24 hrs) was “as potent as D-4F” and the “potency in rendering LDL from apo E null mice resistant to oxidation by human artery wall cells (induction of monocyte chemotactic activity)” value (ApoE null mice [5]) was “slightly more potent than D-4F”. The “potency in causing HDL to inhibit oxidation of PAPC by HPODE in a human artery wall co-culture (monocyte chemotactic activity)” value (ApoE null mice [6]) was “as potent as D-4F” and the “potency in increasing the paraoxonase activity of apo E null mice” value (PON1) was “at least as potent as D-4F”.

For Ac-LVGRQLEEFL-NH2 [D-[113-122]apoJ], the “association with pre-beta HDL and HDL” value [7] was “slowly associates with pre-beta HDL and to a lesser extent with HDL” and the “time it remains associated with the HDL fractions (pre-beta HDL, HDL)” value [7] was “at least 36 hours”.

For “apo A-I: apolipoprotein A-I, the major protein of HDL”, the “removal of seeding molecules from human LDL in vitro” value (human LDL) was “removed seeding molecules from the LDL that included HPODE and HPETE”, the “oxidation of LDL isolated after injection, by human artery wall cells, and induction of monocyte chemotactic activity” value (mice) was “resistant to oxidation by human artery wall cells and did not induce monocyte chemotactic activity” and the “oxidation of LDL isolated after infusion, by human artery wall cells, and induction of monocyte chemotactic activity” value (human volunteers) was “resistant to oxidation by human artery wall cells and did not induce monocyte chemotactic activity”.

For “Ac-D-W-L-K-A-F-Y-D-K-V-F-E-K-F-K-E-F-F-NH2 (Ac-DWLKAFYDKVFEKFKEFF-NH2) [Peptide 5F]”, the “LDL from PBS-injected mice compared with LDL from peptide-injected mice: oxidation and induction of monocyte chemotactic activity” value [8] is given as “more readily oxidized and more readily induced monocyte chemotactic activity than LDL taken from mice fed the same diet but injected with 20µg daily of peptide 5F”.
